Results on 9 compounds are retold here after article PMC12386606, “Evaluation of the In Vitro Blood–Brain Barrier Transport of Ferula persica L. Bioactive Compounds” (International Journal of Molecular Sciences, 2025).

Read-outs that look alike come from different tables or passages of the source.

Usually viability stands for a per cent measure of how many cells are alive, often set against a control.

Series [1] concerns SH-SY5Y cells. As to the kind of experiment: Neuroprotection against H2O2, L-glutamate and Aβ1-42 in differentiated SH-SY5Y cells (MTT). The settings on record: 24 h.
Experimental: To investigate the neuroprotective potential of AerExt or RootExt, oxidative damage (H2O2), excitotoxic stress (L-glutamate), and Aβ1-42 toxicity were induced in cells and evaluated as described by [58]. Briefly, SH-SY5Y cells were plated as described above, and 24 h after cell attachment, cells were pre-treated with non-toxic concentrations of AerExt or RootExt (40 μg mL^−1 for AerExt; 20 μg mL^−1 for RootExt) for 24 h. In the control group, DMEM/F12 cell medium supplemented with 1% FBS, 100 U mL^−1 penicillin, 100 μg mL^−1 streptomycin, 250 ng mL^−1 antimycotic, and 0.4% ethanol was used. The next day, cells were incubated with either cell medium alone (control), H2O2 (65 μM), L-glutamate (23 mM), or Aβ1-42 (30 μM) for 24 h. Cell viability was assessed by MTT assay at the end of the experiments. All the experiments were repeated three times, and a T-test was applied between the treated and control conditions considering statistically significant differences when p < 0.05.
The conditions of series [2]: PAMPA. (In PAMPA a lipid-coated filter parts donor from acceptor wells.)
Experimental: (§1) The permeability of bioactive compounds from AerExt and RootExt across the BBB was assessed using the PAMPA-BBB assay, following the methodology described by [11]. Firstly, the BBB solution was prepared by dissolving 8 mg of PBL and 4 mg of cholesterol in 600 μL of n-dodecane. The initial donor solution was prepared by mixing 1 mL of AerExt or RootExt (at 10 mg mL^−1 in EtOH) with 1 mL of buffer (PBS, pH = 7.4, 10 mM). The filter membrane of the donor plate was coated with 5 μL of BBB solution. The acceptor plate was filled with 350 μL of buffer, and the donor plate was carefully placed on top of the acceptor plate to form a “sandwich-like” assembly. Subsequently, 350 μL of the donor solution was added to the donor plate, which was then covered and incubated at 37 °C for 4 h in the dark. After the incubation time, 300 μL of the solution was collected from each plate, transferred into separate vials, and evaporated using a SpeedVac system at 40 °C under 13 mbar pressure. The dried acceptor and donor solutions were dissolved in 50 μL of pure EtOH before being subjected to HPLC-Q-TOF-MS/MS and GC-Q-TOF-MS analysis. Permeability (Pe) across the PAMPA-BBB of the bioactive compound was calculated according to Equation (1) [54], with modifications in concentration rates.Pe = −ln[1 − CA(t)/Cequilibrium]/(A × (1/VD + 1/VA) × t)(1)
(§2) Cequilibrium was calculated according to Equation (2):Cequilibrium = [CD(t) × VD + CA(t) × VA]/(VD + VA)(2)
(§3) The HPLC-MS and GC-MS chromatograms were processed using the Agilent Mass Hunter Qualitative software (version B.10.0) to verify the retention time and exact mass of the compounds previously reported by us [25] and to extract their peak area to calculate the BBB permeability.
The conditions of series [3]: oil/water partition coefficient, ref PubChem, cited from earlier work.
In series [4] the test system is HBMEC cells. Description: Blood–brain barrier transport study in HBMEC Transwell monolayer. The settings on record: for RootExt Te (%) ± SD 2 h / RootExt Te (%) ± SD 4 h / RootExt Te (%) ± SD 24 h: RootExt 20 µg mL^−1 apical; for RootExt Te (%) ± SD 2 h / RootExt Te (%) ± SD 4 h / RootExt Te (%) ± SD 24 h / AerExt Te (%) ± SD 2 h / AerExt Te (%) ± SD 4 h / AerExt Te (%) ± SD 24 h: n.q. = not quantified in the basolateral compartment; for AerExt Te (%) ± SD 2 h / AerExt Te (%) ± SD 4 h / AerExt Te (%) ± SD 24 h: AerExt 40 µg mL^−1 apical; for crossing of the HBMEC-BBB: AerExt 40 µg mL^−1 / RootExt 20 µg mL^−1, 2, 4, 24 h.
Experimental: After the toxicity evaluation, the HBMEC cell line was also used as a simplified in vitro model of the BBB endothelium. Cells were seeded at a density of 1.6 × 10^5 cells/cm^2 in 12-well Transwell® plates (Corning Costar Corp., Corning, USA) with a pore diameter of 0.4 μm, pre-coated with type I rat tail collagen (100 μg mL^−1) [55]. The culture medium was renewed every 2 days until a monolayer cell structure was formed (see Supplementary Figure S2), and transport experiments were initiated after 10 days. In transport experiments, the medium in the apical (upper) compartment of the Transwell system was removed, and 0.5 mL of AerExt or RootExt at a concentration of 40 μg mL^−1 and 20 μg mL^−1, respectively, was added to these compartments (applied in duplicate). Also, a medium containing 0.4% (v/v) ethanol was used as control group. The basolateral (lower) compartments were filled with 1.5 mL of fresh culture medium. The cells were incubated under these conditions for 2, 4, and 24 h.
At the end of the incubation periods, media samples were collected from both chambers and lyophilized using a freeze-drying system from Martin Christ (Osterode am Harz, Germany). The samples were stored at −80 °C until analysis. The collected samples were subjected to chemical analyses to evaluate the ability of bioactive compounds contained in the extracts to pass through the cell monolayer.
The transport efficiency (Te) of bioactive substances was calculated based on Equation (3), described by [56]:Te (%) = CLower/CUpper × 100(3)
This calculation was performed to understand whether the compound crosses the cell layer and how efficiently it is transported.
For this purpose, 0.2 mL of cold water (H2O) was added to the samples, and the samples were vortexed for 10 s. Then, 0.8 mL of cold methanol was added and vortexed again for 10 s. Then, the mixture was centrifuged at 14,000 rpm for 5 min, and the supernatant was carefully transferred to a 1.5 mL Eppendorf tube and dried in a SpeedVac device at 40 °C and 13 bar pressure. Finally, the dried samples were resuspended in 25 μL of pure ethanol for their subsequent analysis.
For HPLC-Q-TOF MS/MS analysis, aliquots of 2 μL were injected into an HPLC model 1290 coupled to a Q-TOF series 6540 (Agilent Technologies, Waldbronn, Germany). For GC-Q-TOF MS analysis, aliquots of 1 μL were injected with a split ratio of 1:10 into a GC model 7890B coupled to a Q-TOF series 7200 (Agilent Technologies, Waldbronn, Germany). The HPLC-MS and GC-MS chromatograms were processed using the Agilent Mass Hunter Qualitative software (version B.10.0) to verify the retention time and exact mass of the compounds previously reported by us [25] and to extract their peak area to calculate the BBB permeability.

Series [5] can be described thus: Parallel artificial membrane permeability assay for the blood–brain barrier (PAMPA-BBB). The settings on record: for AerExt log Pe: compound within AerExt donor solution; for AerExt log Pe / RootExt log Pe: 37 °C, 4 h, PBS pH 7.4, n.q. = not quantified in the acceptor plate; for RootExt log Pe: compound within RootExt donor solution.
Experimental: as §1, §2, §3

On to `N[C@@H](CCC(=O)O)C(=O)O` [L-glutamate], for which the viability at 23000 µM in series [1] (Homo sapiens, read-out: cell viability after neurotoxic agent, compared with control) came out at 47%.
In the case of `Cc1nccc2c1[nH]c1ccccc12` [Harman], the “AerExt Cross BBB Potential” value in series [2] is on record as “++ (key: –: not quantified in acceptor; +: log Pe < −6.5; ++: −6.5 < log Pe < −5.5; +++: −5.5 < log Pe < −4.5)”. The log p in series [3] (Table 1) is listed as 3.6.
As for `OO` [H2O2], in series [1] (H2O2 65 µM), the “cell viability after neurotoxic agent, compared with control” value was determined as 48%.
`COc1c(O)cc2oc(-c3ccc(O[C@@H]4O[C@H](CO)[C@@H](O)[C@H](O)[C@H]4O)cc3)cc(=O)c2c1O` [Hispidulin 4′-glucoside]: the “AerExt Cross BBB Potential” value in series [2] was “+ (key: –: not quantified in acceptor; +: log Pe < −6.5; ++: −6.5 < log Pe < −5.5; +++: −5.5 < log Pe < −4.5)”. Besides, in series [2] (pH 7.4), the “AerExt log Pe” value is listed as −6.14.
For the compound `CC(C)[C@@H]1CC[C@@]2(C)[C@H](O)CC[C@](C)(O)[C@H]2[C@@H]1O[C@@H]1O[C@H](CO)[C@@H](O)[C@H](O)[C@H]1O` [Ophiopogonoside A], in series [4], the “RootExt Te (%) ± SD 2 h” value is “n.q”, the “RootExt Te (%) ± SD 4 h” value is “n.q” and the “RootExt Te (%) ± SD 24 h” value turned out to be 66.0 ± 3.2%. In series [3] (Table 1), the log p is listed as 0.4. Also, in series [5], the “AerExt log Pe” value was “n.q” and the “RootExt log Pe” value is recorded as “n.q”.
`O=C(O)c1cccc(O)c1O` [2,3-dihydroxybenzoic acid]: in series [4], the “AerExt Te (%) ± SD 2 h” value was 17.5 ± 3.5%, the “AerExt Te (%) ± SD 4 h” value stood at 9.6 ± 0.6%, the “AerExt Te (%) ± SD 24 h” value is given as 14.0 ± 3.9% and the “RootExt Te (%) ± SD 2 h” value was 21.4 ± 5.3%. For the same compound, in series [4], the “RootExt Te (%) ± SD 4 h” value amounted to 23.9 ± 4.4% and the “RootExt Te (%) ± SD 24 h” value was determined as 214.1 ± 45.4%. Moreover, in series [3] (Table 1), the log p is on record as 1.2. Further, the log p in series [3] (Table 2) was 1.5. Also, the “AerExt log Pe” value in series [5] is “n.q”.
`Oc1ccc(O)c(O)c1` [1,2,4-benzenetriol]: in series [4], the “crossing of the HBMEC-BBB” value is “could not cross the HBMEC-BBB”, the “RootExt Te (%) ± SD 2 h” value is given as “n.q”, the “RootExt Te (%) ± SD 4 h” value is recorded as “n.q” and the “RootExt Te (%) ± SD 24 h” value is reported as “n.q”. For the same compound, the log p in series [3] (Table 1) is 1.5. The “AerExt log Pe” value in series [5] is given as “n.q”.
As to `O=c1cc(-c2ccc(O)cc2)oc2cc(O[C@@H]3O[C@H](CO)[C@@H](O)[C@H](O)[C@H]3O)cc(O)c12` [Apigenin 7-glucoside], in series [4], the “crossing of the HBMEC-BBB” value is “could not cross the HBMEC-BBB”, the “AerExt Te (%) ± SD 2 h” value is reported as “n.q” and the “AerExt Te (%) ± SD 4 h” value was “n.q”. Further, the log p in series [3] (Table 1) is listed as −0.1. Besides, the “AerExt Cross BBB Potential” value in series [5] (compound within AerExt, PAMPA-BBB) was “+ (log Pe < −6.5)”. Besides, the “RootExt log Pe” value in series [5] is “n.q”.
Turning to `COc1ccc(C=O)c(O)c1` [4-methoxysalicylaldehyde], in series [4], the “crossing of the HBMEC-BBB” value was “could not cross the HBMEC-BBB”, the “AerExt Te (%) ± SD 2 h” value was “n.q”, the “AerExt Te (%) ± SD 4 h” value is on record as “n.q” and the “AerExt Te (%) ± SD 24 h” value is on record as “n.q”. For the same compound, the “RootExt Te (%) ± SD 2 h” value in series [4] is listed as “n.q”. Besides, the log p in series [3] (Table 1) was 1.5. Also, the “AerExt log Pe” value in series [5] is reported as “n.q”.
